Source: patent US20050175535A1 (CV Therapeutics, Inc., priority 2000, published 2005)
Read-outs that look alike come from different tables or passages of the source.

Legend:
A2A adenosine receptors = A2A adenosine receptors (Sus scrofa, UniProt K9IW67); test: Competitive radioligand binding, [3H]ZM241385, pig striatum membranes
Description: Membranes were also obtained from porcine striatial cells as follows. […] The homogenate was filtered through cotton gauze and centrifuged at 48,000g for 15 minutes at 4° C. […] The final pellet was frozen at −80° C. until used for receptor binding assays.

[1] = target: T1, human A2B adenosine receptors (Homo sapiens, UniProt P29275); test: cAMP accumulation in HEK-293 cells expressing A2B adenosine receptors; type: cell-based; details: up to 100 μM
T1 construct: expressed in transfected cells
T1 sequence (P29275 1-332): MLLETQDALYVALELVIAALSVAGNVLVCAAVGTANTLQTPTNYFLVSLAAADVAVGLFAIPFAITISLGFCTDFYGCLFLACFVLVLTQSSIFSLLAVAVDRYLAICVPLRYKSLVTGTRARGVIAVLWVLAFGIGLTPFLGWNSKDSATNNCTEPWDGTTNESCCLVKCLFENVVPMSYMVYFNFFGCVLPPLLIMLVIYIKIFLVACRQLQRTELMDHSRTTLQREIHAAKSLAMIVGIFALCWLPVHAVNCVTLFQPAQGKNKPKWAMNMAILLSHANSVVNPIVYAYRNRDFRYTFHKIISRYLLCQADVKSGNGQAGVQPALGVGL

[2] = tested on: rat isolated perfused heart; test: Coronary conductance / coronary perfusion pressure in isolated perfused rat hearts; details: for EC50: Rattus norvegicus; for effect on coronary conductance: isolated rat hearts, in words
Description: Briefly, rats of either sex weighing 230-260 grams were anesthetized by intraperitoneal injection of a mixture of ketamine (100 mg/ml) and xylazine (20 mg/ml). The chest of each rat was opened and the heart removed, and rinsed in ice-cold modified Krebs-Henseleit (K-H) solution containing NaCl 117.9, KCl 4.5, CaCl2 2.5, MgSO4 1.18, KH2PO4 1.18, pyruvate 2.0 mmo/L. The aorta was cannulated and the heart was perfused at a flow rate of 10 ml/min with modified K-H solution. The K-H solution (pH 7.4) was gassed continuously with 95% O2 and 5% CO2 and warmed to 35±0.5° C. The heart was electrically paced at a fixed cycle length of 240 ms (250 beats/min) using a bipolar electrode placed in the left atrium. The electrical stimuli were generated by a Grass stimulator (Model S48, W. Warwick, R.I.) and delivered through a Stimuli Isolation Unit (Model SIU5, Astro-Med, Inc., NY) as square-wave pulses of 3-msec in duration and with an amplitude of at least twice the threshold intensity.
The identity of the adenosine receptor subtype (A1 or A2A) mediating the coronary vasodilation was determined.
Coronary perfusion pressure (CPP) was measured using a pressure transducer that was connected to the aortic cannula via a T-connector positioned approximately 3 cm above the heart. CPP was monitored throughout an experiment and recorded either on a chart recorder (Gould Recorder 2200S, Valley View, Ohio) or a computerized recording system (PowerLab/4S, ADInstruments Pty Ltd, Australia). Only hearts with CPP ranging from 60 to 85 mmHg (in the absence of drugs) were used in the study. CC conductance (in ml/min/mmHg) was calculated as the ratio between coronary perfusion rate (10 ml/min) and CPP.

[3] = [3H]ZM241385, Gpp(NH)p present, read-out: pKi ± SEM, Pig Strialum (A2A) (converted)
[4] = read-out: binding affinity to A2A receptors in pig striatum (Ki)
[5] = read-out: EC50, Coronary Conductance (Rat Isolated Heart)
[6] = read-out: pEC50 ± SEM, Coronary Conductance (Rat Isolated Heart) (converted)

A2A adenosine receptors, sequence (K9IW67 1-409): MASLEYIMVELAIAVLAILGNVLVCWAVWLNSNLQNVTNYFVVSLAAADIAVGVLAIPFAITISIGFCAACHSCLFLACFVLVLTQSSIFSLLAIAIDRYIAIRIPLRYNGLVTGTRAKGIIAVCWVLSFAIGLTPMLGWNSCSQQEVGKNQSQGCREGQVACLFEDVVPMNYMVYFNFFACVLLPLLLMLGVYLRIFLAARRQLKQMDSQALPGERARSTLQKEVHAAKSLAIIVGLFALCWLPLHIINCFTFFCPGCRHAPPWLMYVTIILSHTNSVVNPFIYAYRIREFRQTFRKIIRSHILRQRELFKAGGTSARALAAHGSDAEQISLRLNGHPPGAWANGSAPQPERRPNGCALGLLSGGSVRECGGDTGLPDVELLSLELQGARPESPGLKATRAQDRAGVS

Structure (SMILES)	Ki (A2A adenosine receptors; [3]) [µM]	Ki (A2A adenosine receptors; [4]) [µM]	effect on cellular cAMP content [1]	decrease in coronary perfusion pressure ([2]; 10 nM, isolated rat heart) [mmHg]	effect of 60 nM CPX (A1 antagonist) on the increase in coronary conductance ([2]; CVT-3146 10 nM)	effect of 60 nM ZM241385 (A2a antagonist) on the increase in coronary conductance ([2]; CVT-3146 10 nM)	coronary conductance ([2]; CVT-3146 10 nM, baseline 0.16±0.02, n=6 hearts) [ml mm Hg−1 min−1]	EC50 [2, 5] [µM]	EC50 [2, 6] [µM]	agonist behaviour with respect to coronary artery conductance ([2]; isolated rat heart)	effect on coronary conductance [2]
CNC(=O)c1cnn(-c2nc(N)c3ncn(C4O[C@@H](CO)[C@H](O)[C@@H]4O)c3n2)c1 (some centres unmarked) [CVT-3146]	1.12	1.1	neither CVT-3033 nor CVT-3146 had any detectable effects	23	not affected	completely reversed	0.22±0.01	0.0064	0.00646	full agonist	increased coronary conductance in a concentration-dependent manner
Nc1ncnc2c1ncn2[C@@H]1O[C@H](CO)[C@@H](O)[C@H]1O [Adenosine, adenosine, reference compound]	–	–	–	–	–	–	–	0.0592	0.0575	–	concentration-dependent increases in coronary conductance
CCCCCn1cc(-c2nc(N)c3ncn(C4O[C@@H](CO)[C@H](O)[C@@H]4O)c3n2)cn1 (some centres unmarked) [CVT-3033]	2.14	1.42	neither CVT-3033 nor CVT-3146 had any detectable effects	–	–	–	–	0.068	0.0646	–	increased coronary conductance in a concentration-dependent manner
